The source made the active and inactive calls. The rule behind the calls is not given here.
System: CCRIS mutagenicity, Ames/micronucleus/aberration tests
Assay: CCRIS mutagenicity studies

SMILES: COc1cc2c(c3oc(=O)c4c(c13)CCC4=O)[C@@H]1C=CO[C@@H]1O2
- mutagenic call (End Point: IN VITRO MICRONUCLEUS, Test System: AHH-1 CELLS, Metabolic Activation: NONE): active; positive
- mutagenic call (End Point: IN VITRO MICRONUCLEUS, Test System: MCL-5 CELLS, Metabolic Activation: NONE): active; positive
- mutagenic call (Test System: AMES SALMONELLA TYPHIMURIUM, Strain/Indicator: TA98, Metabolic Activation: EPITHELIAL CELL-MEDIATED, AROCLOR 1254, Method: PREINCUBATION): active; positive
- mutagenic call (Test System: AMES SALMONELLA TYPHIMURIUM, Strain/Indicator: TA98, Metabolic Activation: EPITHELIAL CELL-MEDIATED, NADPH, Method: PREINCUBATION): active; positive
- mutagenic call (Test System: AMES SALMONELLA TYPHIMURIUM, Strain/Indicator: TA98, Metabolic Activation: EPITHELIAL CELL-MEDIATED, Method: PREINCUBATION): active; positive
- mutagenic call (Test System: AMES SALMONELLA TYPHIMURIUM, Strain/Indicator: TA98, Metabolic Activation: HAMSTER, LIVER, S-9, Method: MICROSUSPENSION): active; positive
- mutagenic call (Test System: AMES SALMONELLA TYPHIMURIUM, Strain/Indicator: TA98, Metabolic Activation: HAMSTER, LUNG, S-9, Method: MICROSUSPENSION): inactive; negative
- mutagenic call (Test System: AMES SALMONELLA TYPHIMURIUM, Strain/Indicator: TA98, Metabolic Activation: HAMSTER, TRACHEA, S-9, Method: MICROSUSPENSION): active; positive
- mutagenic call (Test System: AMES SALMONELLA TYPHIMURIUM, Strain/Indicator: TA98, Metabolic Activation: HUMAN LIVER, S-9, Method: STANDARD PLATE): active; positive
- mutagenic call (Test System: AMES SALMONELLA TYPHIMURIUM, Strain/Indicator: TA98, Metabolic Activation: HUMAN, LIVER, S-9, Method: STANDARD PLATE): active; positive
- mutagenic call (Test System: AMES SALMONELLA TYPHIMURIUM, Strain/Indicator: TA98, Metabolic Activation: KUPFFER CELL-MEDIATED, AROCLOR 1254, Method: PREINCUBATION): active; positive
- mutagenic call (Test System: AMES SALMONELLA TYPHIMURIUM, Strain/Indicator: TA98, Metabolic Activation: KUPFFER CELL-MEDIATED, NADPH, Method: PREINCUBATION): active; positive
- mutagenic call (Test System: AMES SALMONELLA TYPHIMURIUM, Strain/Indicator: TA98, Metabolic Activation: KUPFFER CELL-MEDIATED, Method: PREINCUBATION): active; positive
- mutagenic call (Test System: AMES SALMONELLA TYPHIMURIUM, Strain/Indicator: TA98, Metabolic Activation: NONE, Method: MICROSUSPENSION): active; positive
- mutagenic call (Test System: AMES SALMONELLA TYPHIMURIUM, Strain/Indicator: TA98, Metabolic Activation: NONE, Method: PREINCUBATION): inactive; negative
- mutagenic call (Test System: AMES SALMONELLA TYPHIMURIUM, Strain/Indicator: TA98, Metabolic Activation: NONE, Method: STANDARD PLATE): active; positive
- mutagenic call (Test System: AMES SALMONELLA TYPHIMURIUM, Strain/Indicator: TA98, Metabolic Activation: PARENCHYMAL CELL-MEDIATED, AROCLOR 1254, Method: PREINCUBATION): active; positive
- mutagenic call (Test System: AMES SALMONELLA TYPHIMURIUM, Strain/Indicator: TA98, Metabolic Activation: PARENCHYMAL CELL-MEDIATED, NADPH, Method: PREINCUBATION): active; positive
- mutagenic call (Test System: AMES SALMONELLA TYPHIMURIUM, Strain/Indicator: TA98, Metabolic Activation: PARENCHYMAL CELL-MEDIATED, Method: PREINCUBATION): inactive; negative
- mutagenic call (Test System: AMES SALMONELLA TYPHIMURIUM, Strain/Indicator: TA98, Metabolic Activation: RABBIT, LIVER, S-9, Method: MICROSUSPENSION): active; positive
- mutagenic call (Test System: AMES SALMONELLA TYPHIMURIUM, Strain/Indicator: TA98, Metabolic Activation: RABBIT, LUNG, S-9, Method: MICROSUSPENSION): active; positive
- mutagenic call (Test System: AMES SALMONELLA TYPHIMURIUM, Strain/Indicator: TA98, Metabolic Activation: RABBIT, TRACHEA, S-9, Method: MICROSUSPENSION): active; positive
- mutagenic call (Test System: AMES SALMONELLA TYPHIMURIUM, Strain/Indicator: TA98, Metabolic Activation: RAT LIVER S-9, DELOR 103, Method: STANDARD PLATE): active; positive
- mutagenic call (Test System: AMES SALMONELLA TYPHIMURIUM, Strain/Indicator: TA98, Metabolic Activation: RAT LIVER S-9, DELOREM 103, Method: STANDARD PLATE): active; positive
- mutagenic call (Test System: AMES SALMONELLA TYPHIMURIUM, Strain/Indicator: TA98, Metabolic Activation: RAT, LIVER, MICROSOMES, PHENOBARBITAL, Method: STANDARD PLATE): active; positive
- mutagenic call (Test System: AMES SALMONELLA TYPHIMURIUM, Strain/Indicator: TA98, Metabolic Activation: RAT, LIVER, S-9, ACRYLAMIDE, Method: STANDARD PLATE): active; positive
- mutagenic call (Test System: AMES SALMONELLA TYPHIMURIUM, Strain/Indicator: TA98, Metabolic Activation: RAT, LIVER, S-9, AROCLOR 1254, Method: PREINCUBATION): active; positive
- mutagenic call (Test System: AMES SALMONELLA TYPHIMURIUM, Strain/Indicator: TA98, Metabolic Activation: RAT, LIVER, S-9, AROCLOR 1254, Method: STANDARD PLATE): active; positive
- mutagenic call (Test System: AMES SALMONELLA TYPHIMURIUM, Strain/Indicator: TA98, Metabolic Activation: RAT, LIVER, S-9, PHENOBARBITAL, Method: STANDARD PLATE): active; positive
- mutagenic call (Test System: AMES SALMONELLA TYPHIMURIUM, Strain/Indicator: TA98, Metabolic Activation: RAT, LIVER, S-9, Method: MICROSUSPENSION): active; positive
- mutagenic call (Test System: AMES SALMONELLA TYPHIMURIUM, Strain/Indicator: TA98, Metabolic Activation: RAT, LUNG, S-9, Method: MICROSUSPENSION): inactive; negative
- mutagenic call (Test System: AMES SALMONELLA TYPHIMURIUM, Strain/Indicator: TA98, Metabolic Activation: RAT, TRACHEA, S-9, Method: MICROSUSPENSION): inactive; negative
- mutagenic call (Test System: AMES SALMONELLA TYPHIMURIUM, Strain/Indicator: TA100, Metabolic Activation: HUMAN LIVER, S-9, Method: STANDARD PLATE): active; positive
- mutagenic call (Test System: AMES SALMONELLA TYPHIMURIUM, Strain/Indicator: TA100, Metabolic Activation: HUMAN, LIVER, S-9, Method: STANDARD PLATE): active; positive
- mutagenic call (Test System: AMES SALMONELLA TYPHIMURIUM, Strain/Indicator: TA100, Metabolic Activation: HUMAN, PLACENTAL MICROSOMES, Method: PREINCUBATION): active; positive
